Measurements as given in paper PMC9699427 (Viruses, 2022).
Like-named read-outs stand apart in the source and are kept apart here.

Columns and labels:
[1] = tested on: C8166 cells infected with HIV-1IIIB or TZM-bl cells infected with HIV-1YU-2; test: Combination antiviral activity assay (CompuSyn CI and DRI); format: cell-based
[2] = tested on: HIV-1IIIB; test: Anti-HIV-1 activity, syncytia (CPE) count in C8166 cells; format: cell-based; conditions: Human immunodeficiency virus 1
[3] = Cytotoxicity, MTT assay, MT-4 cells; format: cell-based; conditions: human, three days, read-out: CC50 (Mean ± SD)
[4] = tested on: HIV-1IIIB chronically infected H9 cells; test: HIV-1 replication in chronically infected H9/HIV-1IIIB cells, p24; format: cell-based
[5] = target: CYP2D6 (Homo sapiens, UniProt P10635); test: Cytochrome P450 inhibition, human liver microsomes, dextromethorphan
[6] = Cytotoxicity, MTT assay, PBMCs; format: cell-based; conditions: human, PBMC, seven days, read-out: CC50 (Mean ± SD)
[7] = target: CYP3A4M (Homo sapiens, UniProt P08684); test: Cytochrome P450 inhibition, human liver microsomes, midazolam
[8] = Cytotoxicity, MTT assay, C8166 cells; format: cell-based; conditions: human, three days, read-out: CC50 (Mean ± SD)
[9] = target: CYP2C9 (Homo sapiens, UniProt P11712); test: Cytochrome P450 inhibition, human liver microsomes, diclofenac
[10] = target: CYP2C19 (Homo sapiens, UniProt P33261); test: Cytochrome P450 inhibition, human liver microsomes, S-mephenytoin
[11] = tested on: HIV-1IIIB; test: Anti-HIV-1 activity in the presence of human serum, p24 in C8166; conditions: Human immunodeficiency virus 1, C8166, HIV-1IIIB
[12] = tested on: HIV-1IIIB; test: Anti-HIV-1 activity, MTT protection of MT-4 cells; format: cell-based; conditions: Human immunodeficiency virus 1, MT4, MT-4, MTT
[13] = tested on: HIV-1Yu-2(G140S/Q148H); test: microbe, parasite or virus in culture; format: cell-based; conditions: Human immunodeficiency virus 1, TZM-bl
[14] = target: T1, CYP1A2 (Homo sapiens, UniProt P05177); test: Cytochrome P450 inhibition, human liver microsomes, phenacetin
T1 sequence (P05177 1-516): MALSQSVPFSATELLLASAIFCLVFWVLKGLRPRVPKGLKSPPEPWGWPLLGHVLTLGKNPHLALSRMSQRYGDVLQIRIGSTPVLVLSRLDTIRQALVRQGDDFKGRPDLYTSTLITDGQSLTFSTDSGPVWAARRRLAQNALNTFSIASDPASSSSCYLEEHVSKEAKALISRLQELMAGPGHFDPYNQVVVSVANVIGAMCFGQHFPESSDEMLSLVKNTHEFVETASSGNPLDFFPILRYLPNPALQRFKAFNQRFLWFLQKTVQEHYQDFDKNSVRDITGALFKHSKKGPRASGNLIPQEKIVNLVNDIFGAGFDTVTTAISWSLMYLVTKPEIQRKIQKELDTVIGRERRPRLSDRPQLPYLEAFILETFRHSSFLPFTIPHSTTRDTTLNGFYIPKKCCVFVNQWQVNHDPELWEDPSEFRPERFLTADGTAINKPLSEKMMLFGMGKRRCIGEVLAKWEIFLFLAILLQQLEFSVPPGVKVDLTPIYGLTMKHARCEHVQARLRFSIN

[15] = Cytotoxicity, MTT assay, H9/HIV-1IIIB cells; format: cell-based; conditions: human, three days, read-out: CC50 (Mean ± SD)
[16] = single drug in combination K-5a2+FTC
[17] = single drug in combination K-5a2+T-20
[18] = single drug in combination K-5a2+3TC
[19] = single drug in combination K-5a2+DRV
[20] = single drug in combination K-5a2+DTG
[21] = single drug in combination K-5a2+ETR
[22] = single drug in combination K-5a2+DC521022
[23] = single drug in combination K-5a2+AZT
[24] = single drug in combination K-5a2+MVC
[25] = single drug in combination K-5a2+TDF

Chain of CYP3A4M (P08684 whole entry): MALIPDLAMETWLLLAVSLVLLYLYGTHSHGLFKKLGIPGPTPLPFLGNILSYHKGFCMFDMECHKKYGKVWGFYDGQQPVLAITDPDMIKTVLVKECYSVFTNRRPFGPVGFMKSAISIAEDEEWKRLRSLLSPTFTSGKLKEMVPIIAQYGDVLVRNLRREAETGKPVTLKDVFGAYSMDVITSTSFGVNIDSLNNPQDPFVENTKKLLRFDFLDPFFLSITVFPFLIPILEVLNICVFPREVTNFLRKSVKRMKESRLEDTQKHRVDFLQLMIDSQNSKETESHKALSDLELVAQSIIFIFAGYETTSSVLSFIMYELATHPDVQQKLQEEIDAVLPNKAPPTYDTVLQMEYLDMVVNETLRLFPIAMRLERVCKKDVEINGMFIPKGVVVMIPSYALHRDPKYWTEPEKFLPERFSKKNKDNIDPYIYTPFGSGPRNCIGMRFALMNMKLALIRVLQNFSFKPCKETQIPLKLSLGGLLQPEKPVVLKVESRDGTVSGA
Chain of CYP2D6 (P10635 whole entry): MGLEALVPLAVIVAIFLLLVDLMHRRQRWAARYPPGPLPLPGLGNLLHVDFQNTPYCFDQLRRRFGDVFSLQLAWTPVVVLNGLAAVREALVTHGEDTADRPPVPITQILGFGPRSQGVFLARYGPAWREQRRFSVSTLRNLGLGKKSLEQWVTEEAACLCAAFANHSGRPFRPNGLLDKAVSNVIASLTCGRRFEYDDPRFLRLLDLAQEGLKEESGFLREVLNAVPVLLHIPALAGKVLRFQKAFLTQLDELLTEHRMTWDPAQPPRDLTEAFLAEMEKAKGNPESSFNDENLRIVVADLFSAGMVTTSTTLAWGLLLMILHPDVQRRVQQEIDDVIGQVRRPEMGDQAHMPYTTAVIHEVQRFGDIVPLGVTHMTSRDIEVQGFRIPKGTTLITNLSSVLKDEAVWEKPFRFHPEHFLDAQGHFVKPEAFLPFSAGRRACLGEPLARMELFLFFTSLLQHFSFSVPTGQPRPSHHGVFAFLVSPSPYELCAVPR
Chain of CYP2C9 (P11712 whole entry): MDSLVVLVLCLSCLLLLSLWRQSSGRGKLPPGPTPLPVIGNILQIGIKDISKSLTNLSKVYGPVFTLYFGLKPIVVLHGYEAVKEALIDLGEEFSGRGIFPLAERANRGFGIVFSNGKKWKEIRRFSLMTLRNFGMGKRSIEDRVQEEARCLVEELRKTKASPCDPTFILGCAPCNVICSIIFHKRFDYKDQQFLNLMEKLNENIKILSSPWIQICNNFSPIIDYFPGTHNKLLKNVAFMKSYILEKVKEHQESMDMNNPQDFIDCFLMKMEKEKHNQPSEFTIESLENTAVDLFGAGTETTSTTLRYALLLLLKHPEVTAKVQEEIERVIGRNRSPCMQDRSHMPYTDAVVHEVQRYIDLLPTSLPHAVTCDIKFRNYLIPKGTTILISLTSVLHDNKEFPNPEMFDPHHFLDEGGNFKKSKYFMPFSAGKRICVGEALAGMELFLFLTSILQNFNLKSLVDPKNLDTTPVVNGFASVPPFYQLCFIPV
Chain of CYP2C19 (P33261 whole entry): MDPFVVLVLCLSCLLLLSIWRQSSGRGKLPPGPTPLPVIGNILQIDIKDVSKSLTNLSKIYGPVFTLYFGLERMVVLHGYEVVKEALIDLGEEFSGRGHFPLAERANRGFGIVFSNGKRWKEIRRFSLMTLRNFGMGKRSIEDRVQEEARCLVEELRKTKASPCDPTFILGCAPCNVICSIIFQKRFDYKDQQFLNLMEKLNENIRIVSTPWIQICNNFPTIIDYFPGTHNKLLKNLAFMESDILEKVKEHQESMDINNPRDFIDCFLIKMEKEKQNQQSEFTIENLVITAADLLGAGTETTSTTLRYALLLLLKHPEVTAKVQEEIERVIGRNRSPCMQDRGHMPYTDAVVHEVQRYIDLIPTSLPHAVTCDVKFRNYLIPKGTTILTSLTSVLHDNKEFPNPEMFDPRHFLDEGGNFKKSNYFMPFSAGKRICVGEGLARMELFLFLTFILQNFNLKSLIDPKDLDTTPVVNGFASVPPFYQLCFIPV

Nc1nc(=O)n([C@@H]2CS[C@H](CO)O2)cc1F [FTC, emtricitabine, reference compound]
DRI Value ED75 [1, 16]: 2.38 ± 0.10 | DRI Value ED90 [1, 16]: 2.22 ± 0.23 | DRI Value ED95 [1, 16]: 2.11 ± 0.32

enfuvirtide [T-20, reference compound]
DRI Value ED75 [1, 17]: 2.05 ± 0.42 | DRI Value ED90 [1, 17]: 2.37 ± 0.18 | DRI Value ED95 [1, 17]: 2.69 ± 0.66

Nc1ccn([C@@H]2CS[C@H](CO)O2)c(=O)n1 [3TC, lamivudine, reference compound]
DRI Value ED75 [1, 18]: 2.83 ± 0.52 | DRI Value ED90 [1, 18]: 3.28 ± 0.80 | DRI Value ED95 [1, 18]: 3.64 ± 1.06

CC(C)CN(C[C@@H](O)[C@H](Cc1ccccc1)NC(=O)O[C@H]1CO[C@H]2OCC[C@H]21)S(=O)(=O)c1ccc(N)cc1 [DRV, darunavir, reference compound]
DRI Value ED75 [1, 19]: 2.82 ± 0.21 | DRI Value ED90 [1, 19]: 3.41 ± 0.86 | DRI Value ED95 [1, 19]: 3.93 ± 1.44

C[C@@H]1CCO[C@H]2Cn3cc(C(=O)NCc4ccc(F)cc4F)c(=O)c(O)c3C(=O)N12 [DTG, dolutegravir, reference compound]
DRI Value ED75 [1, 20]: 2.37 ± 0.28 | DRI Value ED90 [1, 20]: 2.50 ± 0.41 | DRI Value ED95 [1, 20]: 2.61 ± 0.68

Cc1cc(C#N)cc(C)c1Oc1nc(Nc2ccc(C#N)cc2)nc(N)c1Br [ETR, etravirine, reference compound]
EC50 [2]: 0.00174 ± 0.00067 µM | CC50 at 3 days [3]: 27.4 ± 5.46 µM | EC50 ([4]; Human immunodeficiency virus 1, HIV-1IIIB, H9/HIV-1IIIB chronically infected, p24): > 50 µM | Inhibition of HIV-1 replication in HIV-1IIIB chronically infected H9 cells ([4]; at a concentration of 50.00 µM): could not inhibit the replication | IC50 [5]: 12 µM | CC50 at 7 days [6]: 34.5 ± 3.06 µM | IC50 [7]: 41.3 µM | CC50 at 3 days [8]: > 50 µM | IC50 [9]: 0.28 µM | IC50 [10]: 0.5 µM | EC50 ([11]; C8166, p24, 20% human serum): 0.00656 ± 0.00489 µM | EC50 ([11]; C8166, p24, 40% human serum): 0.00209 ± 0.00065 µM | EC50 [12]: 0.00615 ± 0.00176 µM | EC50 [13]: < 0.00013 µM | IC50 [14]: 7.48 µM | CC50 at 3 days [15]: 30.4 ± 1.59 µM | DRI Value ED75 [1, 21]: 2.44 ± 0.52 | DRI Value ED90 [1, 21]: 2.20 ± 0.58 | DRI Value ED95 [1, 21]: 2.06 ± 0.61

thioraviroc [DC521022, reference compound]
DRI Value ED75 [1, 22]: 5.41 ± 4.21 | DRI Value ED90 [1, 22]: 7.32 ± 6.96 | DRI Value ED95 [1, 22]: 9.08 ± 9.61

Cc1nnc(C(=O)NC(C)(C)c2nc(C(=O)NCc3ccc(F)cc3)c(O)c(=O)n2C)o1 [RAL, raltegravir, reference compound]
DRI Value ED75 [1]: 3.08 ± 1.11 | DRI Value ED90 [1]: 3.50 ± 1.64 | DRI Value ED95 [1]: 3.83 ± 2.07

Cc1cn([C@H]2C[C@H](N=[N+]=[N-])[C@@H](CO)O2)c(=O)[nH]c1=O [AZT, zidovudine, reference compound]
DRI Value ED75 [1, 23]: 4.88 ± 2.30 | DRI Value ED90 [1, 23]: 5.60 ± 2.33 | DRI Value ED95 [1, 23]: 6.52 ± 3.94

maraviroc [MVC, reference compound]
DRI Value ED75 [1, 24]: 4.58 ± 0.50 | DRI Value ED90 [1, 24]: 5.10 ± 0.83 | DRI Value ED95 [1, 24]: 5.49 ± 1.09

C[C@H](Cn1cnc2c(N)ncnc21)OCP(=O)(O)O [TDF, tenofovir, reference compound]
DRI Value ED75 [1, 25]: 3.22 ± 0.71 | DRI Value ED90 [1, 25]: 3.46 ± 0.35 | DRI Value ED95 [1, 25]: 3.69 ± 0.66
